Measured values reported in US20140322252A1, “Peptides for Treating Alzheimers's Disease and Related Conditions” (priority 2013, published 2014).

What was measured:
[1] = Pharmacokinetic study of RAP-103 in male Sprague Dawley rat, LC-MS/MS; type: in vivo
Method: A pharmacokinetic study of all-D-TTNYT (SEQ ID NO:2) (RAP-103) following intravenous and oral administration was conducted at a target dose level of 1 mg/kg in the male Sprague Dawley rat. The concentration of RAP-103 in each plasma and brain sample was measured using a suitable LC-MS/MS assay. The assay used was a research grade assay (RGA-1) which was established by assessing the accuracy, precision and the linearity of the method. Plasma concentrations generated were used to evaluate the pharmacokinetic parameters of all-D-TTNYT (SEQ ID NO:2) (RAP-103).
The dose formulation was administered intravenously to some animals as a slow bolus over ca 30 s via the tail vein and to a different group of animals orally via gastric gavage at a target dose volume of 1 mL/kg, to achieve a target dose level of 1 mg/kg. The dose volume administered was calculated according to the bodyweight of the animal on the day of dosing. The weight of administered dose was recorded. […] Results of the study show oral boavailibity of the all-D-peptide was achieved, results are in Table 1

[2] = molecular target: CCR2 (Homo sapiens, UniProt P41597); conditions: published, Padi 2012; cited from earlier work
[3] = tested on: rats with partial ligation of the sciatic nerve; conditions: cited from earlier work
[4] = tested on: cofilin-actin rods in hippocampal neurons
[5] = molecular target: T1, CCR8 (Homo sapiens, UniProt P51685); type: cell-based; conditions: for inhibition of CCL1 (I-309) mediated chemotaxis / CCR8 function: M2 type monocyte derived macrophages, CCL1 1 nM
T1 construct: required maturation with M-CSF for 48 hrs to up-regulate expression of CCR8; endogenous in cells; host or cells: human monocytes isolated by Ficoll-Percoll gradient, matured with M-CSF for 48 hours (M2-type macrophages)
Method: Human monocytes isolated by Ficoll-Percoll gradient were cultured in complete growth medium (RPMI1640, supplemented with 10% FBS and 4 mM L-glutamine) in presence of M-CSF for 48 hours. Resting monocytes, as freshly isolated, were not responsive to CCL1, which required maturation with M-CSF for 48 hrs to up-regulate expression of CCR8, so-called “M2” type macrophages. […] The data represent the mean of triplicate determinations of a representative experiment.

[6] = tested on: APPSwDI/NOS2−/− transgenic mouse; conditions: 0.4 mg/kg p.o. once-a-day, 9 months of age, RAWM
Method: We tested yet a further all-D-amino acid modified peptide for oral bioavailability and protection to memory losses in an animal AD model.
Both Transgenic (CVN) and wild-type (WT) mice were used: WT mice were treated orally (p.o.) with vehicle; while CVN mice treated p.o. with either vehicle or treated p.o. with RAP-310, 0.4 mg/kg. At the age of 4.5 to 5 months the mice were subjected to once-a-day oral vehicle or RAP-310. After 1 month of treatment, starting at the age of 6 months, the mice were subjected to radial arm water maze testing.

[7] = tested on: NBM lesioned aged Sprague-Dawley rats; conditions: bilateral NBM lesions, 1 mg IP daily for 5 months; cited from earlier work
[8] = tested on: CCL2 (MCP-1) chemotaxis of human monocytes; experiment: CCL2-mediated human monocyte chemotaxis (FIG. 1); type: cell-based; conditions: FIG. 1, direct comparison among all RAPs
From the text: Triplicate determinations were made and results are expressed as the mean plus or minus SEM. The experiment shown is a direct comparison among all RAPs. Statistical analysis was by unpaired t-test, with significance set at the p<0.01 (*) level for difference from CCL2 only chemotaxis.

[9] = tested on: LPS-infused rats; conditions: 0.01 mg/kg, s.c., 14 days, cited from earlier work

T1 sequence (P51685 whole entry): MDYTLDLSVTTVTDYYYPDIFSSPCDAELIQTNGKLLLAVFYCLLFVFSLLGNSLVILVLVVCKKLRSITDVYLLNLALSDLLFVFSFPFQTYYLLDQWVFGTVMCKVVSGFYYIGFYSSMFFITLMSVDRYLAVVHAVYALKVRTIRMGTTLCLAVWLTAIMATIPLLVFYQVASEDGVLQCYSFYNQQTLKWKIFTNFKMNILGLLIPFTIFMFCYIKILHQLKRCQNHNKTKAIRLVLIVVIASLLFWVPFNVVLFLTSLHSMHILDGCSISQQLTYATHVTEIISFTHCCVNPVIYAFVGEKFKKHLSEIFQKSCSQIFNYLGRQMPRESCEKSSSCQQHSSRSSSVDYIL
Chain of CCR2 (P41597 whole entry): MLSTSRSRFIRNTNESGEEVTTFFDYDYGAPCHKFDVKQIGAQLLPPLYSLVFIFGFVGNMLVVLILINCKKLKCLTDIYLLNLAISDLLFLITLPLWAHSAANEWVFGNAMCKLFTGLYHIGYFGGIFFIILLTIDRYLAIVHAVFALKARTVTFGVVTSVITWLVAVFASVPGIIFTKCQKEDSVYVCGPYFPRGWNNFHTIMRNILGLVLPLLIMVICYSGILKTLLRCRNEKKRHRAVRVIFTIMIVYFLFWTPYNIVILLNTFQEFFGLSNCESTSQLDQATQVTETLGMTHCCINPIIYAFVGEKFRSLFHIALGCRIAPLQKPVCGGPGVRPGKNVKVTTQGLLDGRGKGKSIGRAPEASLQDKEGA

Compound	concentration in male rat plasma ([1]; intravenous, 1 mg/kg, nominal time 0.5 h, individual animals)	time of peak plasma levels ([1]; rat, 1 mg/kg)	detection in plasma ([1]; rat, 5 minutes (0.083 hrs) after dosing, continues at 1 hr)	activity to block MCP-1 human monocyte chemotaxis [2]	already established hypersensitivity ([3]; 0.2-1 mg/kg, days 8 to 12)	development of thermal hyperalgesia ([3]; oral 0.05-1 mg/kg for 7 days)	mechanical allodynia ([3]; oral 0.05-1 mg/kg for 7 days)	spinal microglial activation and monocyte infiltration ([3]; peripheral nerve injury)	EC50 [4]	block of TNFα caused cofilin-actin rod stress response [4]	potency to block CCR8 compared with DAPTA ([5]; FIG. 3)	inhibition of CCL1 (I-309) mediated chemotaxis / CCR8 function [5]	less errors in block 5 compared to CVN vehicle treated mice [6]	less errors in sum scores for Day 1 compared to CVN vehicle treated mice [6]	lesion-induced decreases in cortical thickness [7]	loss of large neurons in layer V [7]	potency to block CCL2 (MCP-1) chemotaxis [8]	potency to block CCL2 (MCP-1) chemotaxis ([8]; listed as RAP-101)	number of activated microglia and astrocytes ([9]; vs vehicle)	number of immunoreactive cells expressing NfKb [9]
C[C@H](O)[C@@H](N)C(=O)N[C@@H](C(=O)N[C@H](CC(N)=O)C(=O)N[C@H](Cc1ccc(O)cc1)C(=O)N[C@@H](C(=O)O)[C@H](C)O)[C@H](C)O [RAP-103, All-D-TTNYT]	0.561 µg/mL	10 to 15 min	detected	block	reverses	inhibits	fully prevents	reduce	–	–	–	–	–	–	–	–	–	–	–	–
C[C@H](O)[C@@H](NC(=O)[C@@H](Cc1ccc(O)cc1)NC(=O)[C@@H](CC(N)=O)NC(=O)[C@H](NC(=O)[C@H](NC(=O)[C@H](NC(=O)[C@@H](CO)NC(=O)[C@@H](C)N)[C@H](C)O)[C@H](C)O)[C@H](C)O)C(=O)O [RAP-310]	–	–	–	–	–	–	–	–	~0.1 pM	comparably blocked	comparable potency	Inhibit	50%	30%	–	–	–	–	–	–
D-ala1-STTTNYT-NH2 [DAPTA]	–	–	–	–	–	–	–	–	–	–	–	Inhibit	–	–	prevented or attenuated	attenuated	most potent	greater potency	dramatically reduced	reduced
